Test results published in PubChem BioAssay (NCI).
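Protocol summary: plate cells (96-well), add compound at 5 concentrations, incubate 48 h, interpolate endpoints linearly. At the GI50, growth is halved. TGI: concentration producing complete growth inhibition.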

Tests used:
Test in all cases: NCI-60 cell line screen, 48 h
SK-MEL-28 melanoma = tested on: SK-MEL-28 melanoma
K-562 leukemia = tested on: K-562 leukemia
786-0 renal = tested on: 786-0 renal
RXF 393 renal = tested on: RXF 393 renal
MCF7 breast = tested on: MCF7 breast
EKVX NSCLC = tested on: EKVX NSCLC
CAKI-1 renal = tested on: CAKI-1 renal
SK-MEL-2 melanoma = tested on: SK-MEL-2 melanoma
U251 CNS = tested on: U251 CNS
CCRF-CEM leukemia = tested on: CCRF-CEM leukemia
NCI-H522 lung = tested on: NCI-H522 lung
SF-295 CNS = tested on: SF-295 CNS
TK-10 renal = tested on: TK-10 renal
HOP-92 NSCLC = tested on: HOP-92 NSCLC
NCI-H460 lung = tested on: NCI-H460 lung
MDA-MB-435 = tested on: MDA-MB-435
MDA-MB-231 breast = tested on: MDA-MB-231 breast
SF-539 CNS = tested on: SF-539 CNS
LOX IMVI melanoma = tested on: LOX IMVI melanoma
A498 renal = tested on: A498 renal
DU-145 prostate = tested on: DU-145 prostate
SK-MEL-5 melanoma = tested on: SK-MEL-5 melanoma
M14 melanoma = tested on: M14 melanoma
HCC-2998 colon = tested on: HCC-2998 colon
SR leukemia = tested on: SR leukemia
MOLT-4 leukemia = tested on: MOLT-4 leukemia
HT29 colon = tested on: HT29 colon
BT-549 breast = tested on: BT-549 breast
KM12 colon = tested on: KM12 colon
SK-OV-3 ovarian = tested on: SK-OV-3 ovarian
OVCAR-3 ovarian = tested on: OVCAR-3 ovarian
NCI-H23 lung = tested on: NCI-H23 lung
NCI/ADR-RES ovarian = tested on: NCI/ADR-RES ovarian
ACHN renal = tested on: ACHN renal
HOP-62 NSCLC = tested on: HOP-62 NSCLC
IGROV1 ovarian = tested on: IGROV1 ovarian
HL-60(TB) leukemia = tested on: HL-60(TB) leukemia
OVCAR-5 ovarian = tested on: OVCAR-5 ovarian
PC-3 prostate = tested on: PC-3 prostate
SW-620 colon = tested on: SW-620 colon
HCT-116 colon = tested on: HCT-116 colon
SF-268 CNS = tested on: SF-268 CNS
SNB-19 CNS = tested on: SNB-19 CNS
T-47D breast = tested on: T-47D breast
A549 NSCLC = tested on: A549 NSCLC
HS 578T breast = tested on: HS 578T breast
OVCAR-4 ovarian = tested on: OVCAR-4 ovarian
UO-31 renal = tested on: UO-31 renal
HCT-15 colon = tested on: HCT-15 colon
UACC-62 melanoma = tested on: UACC-62 melanoma
SN12C renal = tested on: SN12C renal
COLO 205 colon = tested on: COLO 205 colon
OVCAR-8 ovarian = tested on: OVCAR-8 ovarian
MALME-3M melanoma = tested on: MALME-3M melanoma
RPMI-8226 leukemia = tested on: RPMI-8226 leukemia
SNB-75 CNS = tested on: SNB-75 CNS
UACC-257 melanoma = tested on: UACC-257 melanoma

Structure (SMILES): O=C(/C=C\n1cnc(-c2cc(C(F)(F)F)cc(C(F)(F)F)c2)n1)N1CC(F)(F)C1
- GI50 (SK-MEL-28 melanoma): 460 nM
- TGI (SK-MEL-28 melanoma): 4810 nM
- GI50 (K-562 leukemia): 430 nM
- TGI (K-562 leukemia): > 25000 nM
- GI50 (786-0 renal): 387 nM
- TGI (786-0 renal): 6120 nM
- GI50 (RXF 393 renal): 226 nM
- TGI (RXF 393 renal): 1090 nM
- GI50 (MCF7 breast): 212 nM
- TGI (MCF7 breast): 1640 nM
- GI50 (EKVX NSCLC): 953 nM
- TGI (EKVX NSCLC): 14600 nM
- GI50 (CAKI-1 renal): 288 nM
- TGI (CAKI-1 renal): 6840 nM
- GI50 (SK-MEL-2 melanoma): 154 nM
- TGI (SK-MEL-2 melanoma): 1580 nM
- GI50 (U251 CNS): 248 nM
- TGI (U251 CNS): 3660 nM
- GI50 (CCRF-CEM leukemia): 407 nM
- TGI (CCRF-CEM leukemia): > 18800 nM
- GI50 (NCI-H522 lung): 423 nM
- TGI (NCI-H522 lung): 4470 nM
- GI50 (SF-295 CNS): 336 nM
- TGI (SF-295 CNS): > 17000 nM
- GI50 (TK-10 renal): 645 nM
- TGI (TK-10 renal): 3700 nM
- GI50 (HOP-92 NSCLC): 28.8 nM
- TGI (HOP-92 NSCLC): 4370 nM
- GI50 (NCI-H460 lung): 207 nM
- TGI (NCI-H460 lung): 3070 nM
- GI50 (MDA-MB-435): 1400 nM
- TGI (MDA-MB-435): 6380 nM
- GI50 (MDA-MB-231 breast): 305 nM
- TGI (MDA-MB-231 breast): 4520 nM
- GI50 (SF-539 CNS): 161 nM
- TGI (SF-539 CNS): 1580 nM
- GI50 (LOX IMVI melanoma): 357 nM
- TGI (LOX IMVI melanoma): 3450 nM
- GI50 (A498 renal): 37.5 nM
- TGI (A498 renal): 452 nM
- GI50 (DU-145 prostate): 1690 nM
- TGI (DU-145 prostate): 12100 nM
- GI50 (SK-MEL-5 melanoma): 644 nM
- TGI (SK-MEL-5 melanoma): 4080 nM
- GI50 (M14 melanoma): 1360 nM
- TGI (M14 melanoma): 6570 nM
- GI50 (HCC-2998 colon): 729 nM
- TGI (HCC-2998 colon): 4420 nM
- GI50 (SR leukemia): 151 nM
- TGI (SR leukemia): > 25000 nM
- GI50 (MOLT-4 leukemia): 197 nM
- TGI (MOLT-4 leukemia): 944 nM
- GI50 (HT29 colon): 919 nM
- TGI (HT29 colon): 11500 nM
- GI50 (BT-549 breast): 33.6 nM
- TGI (BT-549 breast): 223 nM
- GI50 (KM12 colon): 2410 nM
- TGI (KM12 colon): > 25000 nM
- GI50 (SK-OV-3 ovarian): 1080 nM
- TGI (SK-OV-3 ovarian): > 25000 nM
- GI50 (OVCAR-3 ovarian): 332 nM
- TGI (OVCAR-3 ovarian): 3030 nM
- GI50 (NCI-H23 lung): 391 nM
- TGI (NCI-H23 lung): 5610 nM
- GI50 (NCI/ADR-RES ovarian): 552 nM
- TGI (NCI/ADR-RES ovarian): 10900 nM
- GI50 (ACHN renal): 1300 nM
- TGI (ACHN renal): > 25000 nM
- GI50 (HOP-62 NSCLC): 570 nM
- TGI (HOP-62 NSCLC): 3460 nM
- GI50 (IGROV1 ovarian): 978 nM
- TGI (IGROV1 ovarian): 8590 nM
- GI50 (HL-60(TB) leukemia): 399 nM
- TGI (HL-60(TB) leukemia): > 17100 nM
- GI50 (OVCAR-5 ovarian): 671 nM
- TGI (OVCAR-5 ovarian): > 25000 nM
- GI50 (PC-3 prostate): 277 nM
- TGI (PC-3 prostate): 4540 nM
- GI50 (SW-620 colon): 318 nM
- TGI (SW-620 colon): 12900 nM
- GI50 (HCT-116 colon): 400 nM
- TGI (HCT-116 colon): 4450 nM
- GI50 (SF-268 CNS): 254 nM
- TGI (SF-268 CNS): 2480 nM
- GI50 (SNB-19 CNS): 273 nM
- TGI (SNB-19 CNS): > 25000 nM
- GI50 (T-47D breast): 634 nM
- TGI (T-47D breast): > 21600 nM
- GI50 (A549 NSCLC): 559 nM
- TGI (A549 NSCLC): > 25000 nM
- GI50 (HS 578T breast): 409 nM
- TGI (HS 578T breast): 5340 nM
- GI50 (OVCAR-4 ovarian): 224 nM
- TGI (OVCAR-4 ovarian): 4130 nM
- GI50 (UO-31 renal): 422 nM
- TGI (UO-31 renal): > 25000 nM
- GI50 (HCT-15 colon): 651 nM
- TGI (HCT-15 colon): 4860 nM
- GI50 (UACC-62 melanoma): 1170 nM
- TGI (UACC-62 melanoma): 9200 nM
- GI50 (SN12C renal): 1190 nM
- TGI (SN12C renal): > 25000 nM
- GI50 (COLO 205 colon): 351 nM
- TGI (COLO 205 colon): 4140 nM
- GI50 (OVCAR-8 ovarian): 442 nM
- TGI (OVCAR-8 ovarian): > 11800 nM
- GI50 (MALME-3M melanoma): 1140 nM
- TGI (MALME-3M melanoma): 5840 nM
- GI50 (RPMI-8226 leukemia): 408 nM
- TGI (RPMI-8226 leukemia): 17900 nM
- GI50 (SNB-75 CNS): 432 nM
- TGI (SNB-75 CNS): 6440 nM
- GI50 (UACC-257 melanoma): 1170 nM
- TGI (UACC-257 melanoma): > 13100 nM
